Usually IC50 stands for the concentration at which inhibition is half-maximal.

Results on 8 compounds are retold here after US20260297129A1, “PEPTIDES AS SELECTIVE IL-23 RECEPTOR INHIBITORS” (SANOFI, priority 2023, published 2026).

Molecules are shown by their SMILES. Like-named read-outs stand apart in the source and are kept apart here. Numbered stars: 1 amine (or outer) side, 2 acyl side, 3 side chain; on linkers, the order of the positions; unused ones are H or OH. Bridge positions count the residues as written; N and C are the ends. Square brackets hold non-standard residues; d marks the D form. Peptide text beside a SMILES is read from it. * marks the point of attachment. Lys(Me,(CH2)4NMe(CH2)5CO) = CN(CCCCCC(=O)[*:3])CCCCN(C)CCCC[C@H](N[*:1])C(=O)[*:2]; Trp(7-Me) = Cc1cccc2c(C[C@H](N)C(=O)O)c[nH]c12; Sebacoyl = O=C(CCCCCCCCC(=O)[*:2])[*:1]; NH(CH2)9CO = O=C(CCCCCCCCCN[*:1])[*:2]; 2Nal = N[C@@H](Cc1ccc2ccccc2c1)C(=O)O; Suberoyl = O=C(CCCCCCC(=O)[*:2])[*:1]; d2Nal = N[C@H](Cc1ccc2ccccc2c1)C(=O)O; C12 diacid = O=C(O)CCCCCCCCCCC(=O)*; 3Pal = N[C@@H](Cc1cccnc1)C(=O)O; 12Ado = NCCCCCCCCCCCC(=O)O; AEEEA = NCCOCCOCCOCC(=O)O; Aun = NCCCCCCCCCCC(=O)O; Thp = NC1(C(=O)O)CCOCC1; Me2NCH2CH2 = CN(C)CC*; Aib = CC(C)(N)C(=O)O; Sar = CNCC(=O)O

Data set [1] is described as follows: Chemical stability (relative purity loss) of peptide compounds in buffer formulations (Table 6). The data set is classed as physicochemical. The note with it: 2° C. and 37° C. The gist of the method: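 Compounds at 0.5 mg/mL in 50 mM HCl pH 1.2, 50 mM phosphate pH 6.5 or pH 7.4, each with acetonitrile (3:1), stored 24 hours at 2° C and 37° C. Purity measured by UHPLC-UV before and after. Stability expressed as relative purity loss.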

Data set [2] in a line: Protease stability in simulated intestinal fluids (FaSSIF) (Table 7). It counts as in vitro ADME. Conditions: fassif with pancreatin, 37° C.; for remaining at 1 h, 1 µM: 60 min, read-out: Remaining percentage of peptide compound, FaSSIF 60 (min); for remaining at 2 h, 1 µM: 120 min, read-out: Remaining percentage of peptide compound, FaSSIF 120 (min); for remaining at 4 h, 1 µM: 240 min, read-out: Remaining percentage of peptide compound, FaSSIF 240 (min). In a few lines:
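1 μM peptide incubated at 37° C in simulated fluid (pancreatin-SIF prepared from pancreatin in SIF concentrate). Samples quenched with acidified ethanol at 0, 60, 120 and 240 min and analysed by LC-MS/MS. Percentage remaining from peak area relative to T0 (100%).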

Data set [3] is described as follows: Protease stability in simulated gastric fluids (FaSSGF) (Table 7). Conditions: fassgf with pepsin, 60 min, 37° C., read-out: Remaining percentage of peptide compound, FaSSGF 60 (min). It counts as in vitro ADME. In a few lines:
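Peptides at 1 μM final were incubated at 37 °C in simulated gastric fluid with pepsin (320 mg per 100 mL SGF concentrate). Samples were quenched with ethanol (0.1% HCOOH) at 0, 60, 120 and 240 min and analysed by LC-MS/MS. Percent remaining is the peak area relative to T0 (100%).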

The test system of data set [4] is IL-23 induced STAT3 signaling (IL-23 receptor) in HEK-Blue IL-23 cells. In words: Inhibition of IL-23 induced STAT3 signaling in HEK-Blue IL-23 cells, SEAP reporter (Table 9). The data set is classed as cell-based. The note with it: human IL23 0.25 ng/ml, overnight, read-out: Inhibition of IL-23 induced pSTAT3 (IC50 nM). In a few lines: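 HEK-Blue IL-23 reporter cells (10,000/well) pre-incubated 60 min at 37 °C with serially diluted peptides, then stimulated overnight with human IL-23 at 0.25 ng/ml final. SEAP in supernatant read by QUANTI-Blue, 45 min room temperature, OD 620–655 nm; dose-response curve fitting.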

Setting [5] is: 50 mM phosphate buffer pH 6.5 + acetonitrile (3:1), read-out: Chemical stability (relative purity loss), Buffer pH 6.5.
Setting [6] is: 50 mM phosphate buffer pH 7.4 + acetonitrile (3:1), read-out: Chemical stability (relative purity loss), Buffer pH 7.4.
[7] abbreviates: 50 mm hcl + acetonitrile, Buffer pH 1.1 (head; method: 50 mM HCl pH 1.2 + acetonitrile 3:1), read-out: Chemical stability (relative purity loss), Buffer pH 1.1.

Take `Cc1cccc2c(C[C@@H]3NC(=O)CCCCCCC(=O)NCCCC[C@@H](C(=O)N[C@@H](CC(N)=O)C(=O)N[C@@H](Cc4cccnc4)C(=O)N(C)CC(N)=O)NC(=O)C(C)(C)NC(=O)[C@H](Cc4ccc5ccccc5c4)NC(=O)[C@H](Cc4ccc(OCCN(C)C)cc4)NC(=O)C4(CCOCC4)NC(=O)[C@H](CCC(N)=O)NC3=O)c[nH]c12` [compound 12] ([Trp(7-Me)]Q[Thp]Y(Me2NCH2CH2)[2Nal][Aib]KN[3Pal][Sar]-NH2; linker N-7 via Suberoyl): the degraded at 24 h turned out to be 0% in data set [1] (setting [5]), 0% in data set [1] (setting [6]) and 12% in data set [1] (setting [7]). Moreover, the fraction remaining at 1 h, 1 µM in data set [2] is 79%; in data set [3], 104%. For the same compound, the amount remaining at 2 h, 1 µM in data set [2] was 77%. Besides, the fraction remaining at 4 h, 1 µM in data set [2] is 78%. For the same compound, the half-inhibitory concentration (IC50) in data set [4] stood at 0.97 nM.

Regarding `Cc1cccc2c(C[C@@H]3NC(=O)COCCOCCOCCNC(=O)CC[C@@H](C(=O)N[C@@H](CC(N)=O)C(=O)N[C@@H](Cc4cccnc4)C(=O)N(C)CC(N)=O)NC(=O)C(C)(C)NC(=O)[C@H](Cc4ccc5ccccc5c4)NC(=O)[C@H](Cc4ccc(OCCN(C)C)cc4)NC(=O)C4(CCOCC4)NC(=O)[C@H](CCC(N)=O)NC3=O)c[nH]c12` [compound 14] ([AEEEA][Trp(7-Me)]Q[Thp]Y(Me2NCH2CH2)[2Nal][Aib]EN[3Pal][Sar]-NH2; lactam N-8), the figures for the degraded at 24 h in data set [1] (setting [5]), in data set [1] (setting [6]) and in data set [1] (setting [7]) were 0%, 0% and 8.6%, respectively. Moreover, the share remaining at 1 h, 1 µM in data set [2] was 94%; in data set [3], 100%. In data set [2], the fraction remaining at 2 h, 1 µM was 90%. Besides, the share remaining at 4 h, 1 µM in data set [2] was 88%. Moreover, in data set [4], the 50% inhibitory concentration (IC50) is 1.21 nM.

`Cc1cccc2c(C[C@@H]3NC(=O)CCCCCCCCCCCNC(=O)CC[C@@H](C(=O)N[C@@H](CC(N)=O)C(=O)N[C@@H](Cc4cccnc4)C(=O)N(C)CC(N)=O)NC(=O)C(C)(C)NC(=O)[C@H](Cc4ccc5ccccc5c4)NC(=O)[C@H](Cc4ccc(OCCN(C)C)cc4)NC(=O)C4(CCOCC4)NC(=O)[C@H](CCC(N)=O)NC3=O)c[nH]c12` [compound 2] ([12Ado][Trp(7-Me)]Q[Thp]Y(Me2NCH2CH2)[2Nal][Aib]EN[3Pal][Sar]-NH2; lactam N-8): the degraded at 24 h in data set [1] (setting [5]) turned out to be 0%; in data set [1] (setting [6]), 0.1%; in data set [1] (setting [7]), 6.4%. In addition, the values for the share remaining at 1 h, 1 µM in data set [2] and in data set [3] were 100% and 73%, respectively. Also, in data set [2], the amount remaining at 2 h, 1 µM was 94%. In data set [2], the share remaining at 4 h, 1 µM was 94%. The IC50 in data set [4] turned out to be 0.28 nM.

For the compound `Cc1cccc2c(C[C@@H]3NC(=O)CCCCCCCCC(=O)NCCCC[C@@H](C(=O)N[C@@H](CC(N)=O)C(=O)N[C@@H](Cc4cccnc4)C(=O)N(C)CC(N)=O)NC(=O)C(C)(C)NC(=O)[C@H](Cc4ccc5ccccc5c4)NC(=O)[C@H](Cc4ccc(OCCN(C)C)cc4)NC(=O)C4(CCOCC4)NC(=O)[C@H](CCC(N)=O)NC3=O)c[nH]c12` [compound 11] ([Trp(7-Me)]Q[Thp]Y(Me2NCH2CH2)[2Nal][Aib]KN[3Pal][Sar]-NH2; linker N-7 via Sebacoyl), the values for the degraded at 24 h in data set [1] (setting [5]), in data set [1] (setting [6]) and in data set [1] (setting [7]) were 0%, 0% and 7.9%, respectively. Further, the results for the share remaining at 1 h, 1 µM in data set [2] and in data set [3] were 74% and 98%, respectively. The amount remaining at 2 h, 1 µM in data set [2] was 73%. The fraction remaining at 4 h, 1 µM in data set [2] was 69%. In addition, the half-inhibitory concentration (IC50) in data set [4] came to 0.28 nM.

As to `Cc1cccc2c(C[C@@H]3NC(=O)CCCCCCCCCCNC(=O)CC[C@@H](C(=O)N[C@@H](CC(N)=O)C(=O)N[C@@H](Cc4cccnc4)C(=O)N(C)CC(N)=O)NC(=O)C(C)(C)NC(=O)[C@@H](Cc4ccc5ccccc5c4)NC(=O)[C@H](Cc4ccc(OCCN(C)C)cc4)NC(=O)C4(CCOCC4)NC(=O)[C@H](CCC(N)=O)NC3=O)c[nH]c12` [compound 4] ([Aun][Trp(7-Me)]Q[Thp]Y(Me2NCH2CH2)[d2Nal][Aib]EN[3Pal][Sar]-NH2; lactam N-8), the degraded at 24 h in data set [1] (setting [5]) came to 0%; in data set [1] (setting [6]), 0%; in data set [1] (setting [7]), 6.3%. Also, the fraction remaining at 1 h, 1 µM was 90% in data set [2] and 80% in data set [3]. For the same compound, the fraction remaining at 2 h, 1 µM in data set [2] is 87%. Moreover, in data set [2], the fraction remaining at 4 h, 1 µM is 82%. In data set [4], the IC50 is 0.14 nM.

Regarding `CC(=O)NCCCC[C@@H]1NC(=O)[C@H](Cc2c[nH]c3c(C)cccc23)NC(=O)CCCCCN(C)CCCCN(C)CCCC[C@@H](C(=O)N[C@@H](CC(N)=O)C(=O)N[C@@H](Cc2cccnc2)C(=O)N(C)CC(N)=O)NC(=O)C(C)(C)NC(=O)[C@H](Cc2ccc3ccccc3c2)NC(=O)[C@H](Cc2ccc(OCCN(C)C)cc2)NC(=O)C2(CCOCC2)NC1=O` [compound 18] ([Trp(7-Me)]K(Ac)[Thp]Y(Me2NCH2CH2)[2Nal][Aib][Lys(Me,(CH2)4NMe(CH2)5CO)]N[3Pal][Sar]-NH2; lactam N-7), the degraded at 24 h turned out to be 0% in data set [1] (setting [5]), 0% in data set [1] (setting [6]) and 3.8% in data set [1] (setting [7]). The amount remaining at 1 h, 1 µM in data set [2] was 95%; in data set [3], 100%. Moreover, in data set [2], the amount remaining at 2 h, 1 µM is 88%. In addition, in data set [2], the fraction remaining at 4 h, 1 µM is 85%. Moreover, the IC50 in data set [4] was 0.47 nM.

With `Cc1cccc2c(C[C@@H]3NC(=O)CCCCCCCCCCC(=O)NCCCC[C@@H](C(=O)N[C@@H](CC(N)=O)C(=O)N[C@@H](Cc4cccnc4)C(=O)N(C)CC(N)=O)NC(=O)C(C)(C)NC(=O)[C@H](Cc4ccc5ccccc5c4)NC(=O)[C@H](Cc4ccc(OCCN(C)C)cc4)NC(=O)C4(CCOCC4)NC(=O)[C@H](CCC(N)=O)NC3=O)c[nH]c12` [compound 10] ([Trp(7-Me)]Q[Thp]Y(Me2NCH2CH2)[2Nal][Aib]KN[3Pal][Sar]-NH2; linker N-7 via C12 diacid), the degraded at 24 h is 0% in data set [1] (setting [5]), 0% in data set [1] (setting [6]) and 6.1% in data set [1] (setting [7]). Besides, the share remaining at 1 h, 1 µM was 79% in data set [2] and 88% in data set [3]. Also, the amount remaining at 2 h, 1 µM in data set [2] was 78%. Moreover, the fraction remaining at 4 h, 1 µM in data set [2] is 77%. In data set [4], the IC50 was found to be 0.35 nM.

Consider `Cc1cccc2c(C[C@@H]3NC(=O)CCCCCCCCCNC(=O)CC[C@@H](C(=O)N[C@@H](CC(N)=O)C(=O)N[C@@H](Cc4cccnc4)C(=O)N(C)CC(N)=O)NC(=O)C(C)(C)NC(=O)[C@H](Cc4ccc5ccccc5c4)NC(=O)[C@H](Cc4ccc(OCCN(C)C)cc4)NC(=O)C4(CCOCC4)NC(=O)[C@H](CC(C)C)NC3=O)c[nH]c12` [compound 8] ([NH(CH2)9CO][Trp(7-Me)]L[Thp]Y(Me2NCH2CH2)[2Nal][Aib]EN[3Pal][Sar]-NH2; lactam N-8), for which the degraded at 24 h in data set [1] (setting [5]) came out at 0%; in data set [1] (setting [6]), 0%; in data set [1] (setting [7]), 6.2%. Further, the results for the share remaining at 1 h, 1 µM in data set [2] and in data set [3] were 79% and 7%, respectively. Further, the share remaining at 2 h, 1 µM in data set [2] is 79%. The amount remaining at 4 h, 1 µM in data set [2] is 72%. The IC50 in data set [4] turned out to be 1.85 nM.
